One series has as its target T1, Substance-K receptor (Homo sapiens, UniProt P21452). Note: in other assays of this panel Not Active means under 50% inhibition at 10 µM.
T1 sequence (P21452 whole entry): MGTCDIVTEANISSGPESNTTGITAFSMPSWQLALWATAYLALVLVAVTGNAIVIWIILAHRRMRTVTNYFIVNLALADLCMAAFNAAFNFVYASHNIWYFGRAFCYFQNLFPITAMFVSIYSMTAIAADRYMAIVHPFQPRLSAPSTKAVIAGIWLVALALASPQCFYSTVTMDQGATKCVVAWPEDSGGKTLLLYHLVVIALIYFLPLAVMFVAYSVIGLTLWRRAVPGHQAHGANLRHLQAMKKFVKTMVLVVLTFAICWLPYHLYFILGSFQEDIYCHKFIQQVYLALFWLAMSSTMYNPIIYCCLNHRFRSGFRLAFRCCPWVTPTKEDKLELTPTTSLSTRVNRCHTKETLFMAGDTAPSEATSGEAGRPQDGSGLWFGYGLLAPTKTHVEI
The series is classed as cell membranes, CHO, Membrane. The note with it: cho.

Another series has as its target T2, Estrogen receptor (Homo sapiens, UniProt P03372). Note: in other assays of this panel Not Active means under 50% inhibition at 10 µM.
T2 sequence (P03372 whole entry): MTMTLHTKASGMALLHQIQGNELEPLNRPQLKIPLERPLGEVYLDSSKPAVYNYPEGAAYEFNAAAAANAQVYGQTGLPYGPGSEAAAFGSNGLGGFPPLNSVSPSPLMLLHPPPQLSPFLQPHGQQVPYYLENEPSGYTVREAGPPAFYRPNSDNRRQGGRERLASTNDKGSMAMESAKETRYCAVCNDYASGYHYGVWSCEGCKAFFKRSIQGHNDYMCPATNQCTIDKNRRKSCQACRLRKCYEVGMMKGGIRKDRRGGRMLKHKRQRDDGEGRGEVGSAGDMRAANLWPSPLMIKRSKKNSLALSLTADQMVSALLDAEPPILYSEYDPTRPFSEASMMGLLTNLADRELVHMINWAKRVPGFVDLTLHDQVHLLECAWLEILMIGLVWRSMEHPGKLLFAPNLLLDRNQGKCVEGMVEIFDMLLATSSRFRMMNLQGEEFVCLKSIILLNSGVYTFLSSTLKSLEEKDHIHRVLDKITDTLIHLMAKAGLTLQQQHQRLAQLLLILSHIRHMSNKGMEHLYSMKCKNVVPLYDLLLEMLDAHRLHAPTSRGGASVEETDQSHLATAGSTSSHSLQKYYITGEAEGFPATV
The note with it: sf9.

Series [1] has as its target Mitogen-activated protein kinase 3 (Homo sapiens, UniProt P27361). Kind of series: DRUGMATRIX: Protein Serine/Threonine Kinase, ERK1 enzyme inhibition (substrate: Myelin Basic Protein). Also noted: species or system Escherichia coli. The note with it: Not Active = under 50% inhibition at 10 µM.
The target in another series is Nitric oxide synthase 1 (Rattus norvegicus, UniProt P29476). The format is tissue-based, Cerebellum. Note: in other assays of this panel Not Active means under 50% inhibition at 10 µM.
Series [2] can be described thus: DRUGMATRIX: Calcium Channel Type L, Dihydropyridine radioligand binding (ligand: [3H] Nitrendipine). The series is classed as cell membranes, Rattus norvegicus, Wistar, Cerebral cortex, Membrane. The conditions noted are these: Not Active = under 50% inhibition at 10 µM.
The nature of series [3]: DRUGMATRIX: Serotonin (5-Hydroxytryptamine) 5-HT3 radioligand binding (ligand: [3H] GR-65630). The note with it: hek293; Not Active = under 50% inhibition at 10 µM. The series is classed as cell membranes, Membrane.
For another series, the target named is Cytochrome P450 2C19 (Homo sapiens, UniProt P33261). The note with it: bti-tn-5b1-4. Note: in other assays of this panel Not Active means under 50% inhibition at 10 µM.
Chain of Cytochrome P450 2C19 (P33261 whole entry): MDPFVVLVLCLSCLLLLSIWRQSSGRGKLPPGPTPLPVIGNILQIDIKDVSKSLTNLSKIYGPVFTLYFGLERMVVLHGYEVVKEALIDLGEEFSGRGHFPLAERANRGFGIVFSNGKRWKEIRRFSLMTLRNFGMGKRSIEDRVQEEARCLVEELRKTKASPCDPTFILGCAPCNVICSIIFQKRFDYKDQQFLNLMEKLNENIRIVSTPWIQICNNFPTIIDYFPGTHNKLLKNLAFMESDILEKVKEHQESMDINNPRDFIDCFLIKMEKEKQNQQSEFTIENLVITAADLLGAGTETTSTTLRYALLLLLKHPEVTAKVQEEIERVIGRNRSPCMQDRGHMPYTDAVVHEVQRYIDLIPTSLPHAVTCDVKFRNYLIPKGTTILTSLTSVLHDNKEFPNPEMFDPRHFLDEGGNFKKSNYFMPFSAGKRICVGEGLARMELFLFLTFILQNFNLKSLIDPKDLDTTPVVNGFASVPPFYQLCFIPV

Chain of Nitric oxide synthase 1 (P29476 whole entry): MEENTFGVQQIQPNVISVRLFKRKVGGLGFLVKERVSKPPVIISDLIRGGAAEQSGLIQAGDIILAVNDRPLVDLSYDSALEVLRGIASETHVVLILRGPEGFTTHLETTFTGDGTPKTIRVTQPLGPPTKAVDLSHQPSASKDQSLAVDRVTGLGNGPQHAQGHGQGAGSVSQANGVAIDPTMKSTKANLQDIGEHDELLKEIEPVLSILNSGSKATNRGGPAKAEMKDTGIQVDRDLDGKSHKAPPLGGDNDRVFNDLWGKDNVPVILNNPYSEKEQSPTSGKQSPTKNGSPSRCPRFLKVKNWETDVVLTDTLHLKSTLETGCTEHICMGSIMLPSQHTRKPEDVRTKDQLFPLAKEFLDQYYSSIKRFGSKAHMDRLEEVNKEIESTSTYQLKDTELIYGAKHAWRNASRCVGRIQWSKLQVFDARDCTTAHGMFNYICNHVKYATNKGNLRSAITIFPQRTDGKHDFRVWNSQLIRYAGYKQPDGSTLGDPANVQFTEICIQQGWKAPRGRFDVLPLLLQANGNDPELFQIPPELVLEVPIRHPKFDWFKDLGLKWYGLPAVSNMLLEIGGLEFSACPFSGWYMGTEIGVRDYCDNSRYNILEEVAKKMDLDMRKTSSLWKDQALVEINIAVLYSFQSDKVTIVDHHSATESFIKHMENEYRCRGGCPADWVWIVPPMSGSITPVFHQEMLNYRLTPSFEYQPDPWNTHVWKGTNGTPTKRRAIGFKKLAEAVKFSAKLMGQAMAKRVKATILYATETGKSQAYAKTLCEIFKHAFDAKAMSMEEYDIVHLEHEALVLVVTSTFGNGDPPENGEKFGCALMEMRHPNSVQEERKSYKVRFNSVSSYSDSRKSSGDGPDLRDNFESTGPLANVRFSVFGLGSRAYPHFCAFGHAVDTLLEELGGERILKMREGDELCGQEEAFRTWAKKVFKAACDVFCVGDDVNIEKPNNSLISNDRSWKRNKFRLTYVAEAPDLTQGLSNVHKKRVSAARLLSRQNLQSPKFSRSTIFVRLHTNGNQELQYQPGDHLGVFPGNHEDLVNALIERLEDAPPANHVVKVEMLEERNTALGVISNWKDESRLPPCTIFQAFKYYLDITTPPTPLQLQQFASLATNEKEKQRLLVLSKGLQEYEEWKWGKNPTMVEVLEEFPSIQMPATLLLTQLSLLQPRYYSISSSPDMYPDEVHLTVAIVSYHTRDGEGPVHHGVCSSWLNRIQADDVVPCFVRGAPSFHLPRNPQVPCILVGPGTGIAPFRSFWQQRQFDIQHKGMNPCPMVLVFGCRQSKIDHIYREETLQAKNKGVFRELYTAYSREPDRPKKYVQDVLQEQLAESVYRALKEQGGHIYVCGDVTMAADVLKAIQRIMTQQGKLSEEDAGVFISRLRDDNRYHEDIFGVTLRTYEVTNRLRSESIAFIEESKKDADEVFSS
Chain of Mitogen-activated protein kinase 3 (P27361 whole entry): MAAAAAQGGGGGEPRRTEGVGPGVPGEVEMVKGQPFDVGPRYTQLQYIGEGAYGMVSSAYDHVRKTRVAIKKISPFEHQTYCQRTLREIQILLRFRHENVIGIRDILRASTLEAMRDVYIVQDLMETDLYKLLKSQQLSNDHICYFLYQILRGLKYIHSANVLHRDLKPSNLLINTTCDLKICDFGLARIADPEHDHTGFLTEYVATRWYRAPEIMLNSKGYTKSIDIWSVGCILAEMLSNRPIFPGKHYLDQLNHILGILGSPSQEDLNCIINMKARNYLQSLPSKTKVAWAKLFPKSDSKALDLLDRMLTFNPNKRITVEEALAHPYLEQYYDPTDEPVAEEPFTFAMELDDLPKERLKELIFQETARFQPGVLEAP

Turning to `CC[C@H]1OC(=O)[C@H](C)[C@@H](O[C@H]2C[C@@](C)(OC)[C@@H](O)[C@H](C)O2)[C@H](C)[C@@H](O[C@@H]2O[C@H](C)C[C@H](N(C)C)[C@H]2O)[C@](C)(O)C[C@@H](C)CN(C)[C@H](C)[C@@H](O)[C@]1(C)O` [AZITHROMYCIN], the IC50 entry (at Substance-K receptor; on Estrogen receptor; in series [1]; on Nitric oxide synthase 1; in series [2]; in series [3]) was “Not Active” in each case. Moreover, on Cytochrome P450 2C19, the IC50 result is recorded as “Not Active”. Besides, the Ki result (in series [2]; in series [3]; on Cytochrome P450 2C19) was “Not Active” throughout.

With `CC(C)(C)c1ccc(S(=O)(=O)/C=C/C#N)cc1` [BAY-11-7085], the half-maximal inhibitory concentration (IC50) result (against Substance-K receptor; against Estrogen receptor; in series [1]; against Nitric oxide synthase 1; in series [2]; in series [3]) was “Not Active” in each case. Further, the half-maximal inhibitory concentration (IC50) result against Cytochrome P450 2C19 is reported as “Not Active”. The Ki result (in series [2]; in series [3]; on Cytochrome P450 2C19) was “Not Active” in each case.

Take `CCc1oc2ccccc2c1C(=O)c1cc(Br)c(O)c(Br)c1` [BENZBROMARONE]: the IC50 result (on Substance-K receptor; on Estrogen receptor; in series [1]; against Nitric oxide synthase 1; in series [2]; in series [3]) was “Not Active” throughout. Moreover, at Cytochrome P450 2C19, the concentration for half-maximal inhibition (IC50) entry is given as “Not Active”. The Ki result (in series [2]; in series [3]; on Cytochrome P450 2C19) was “Not Active” in each case.

Take `O=c1cc(-c2ccccc2)oc2ccc3ccccc3c12` [BETA-NAPHTHOFLAVONE]: the half-inhibitory concentration (IC50) entry on Substance-K receptor was “Not Active”; against Estrogen receptor, “Not Active”; in series [1] (read-out: IC50), 5.47 µM; on Nitric oxide synthase 1, “Not Active”; in series [2] it was “Not Active”; in series [3] it was “Not Active”. Moreover, the IC50 result against Cytochrome P450 2C19 is recorded as “Not Active”. Further, the Ki result (in series [2]; in series [3]; on Cytochrome P450 2C19) was “Not Active” in each case.

As to `CS(=O)(=O)OCCCCOS(C)(=O)=O` [BUSULFAN], the IC50 result (against Substance-K receptor; on Estrogen receptor; in series [1]; against Nitric oxide synthase 1; in series [2]; in series [3]) was “Not Active” in each case. Further, on Cytochrome P450 2C19, the concentration for half-maximal inhibition (IC50) entry is recorded as “Not Active”. The Ki entry (in series [2]; in series [3]; on Cytochrome P450 2C19) was “Not Active” each time.

Take `COc1cc(CNC(=O)CCCC/C=C/C(C)C)ccc1O` [CAPSAICIN]: the IC50 entry (on Substance-K receptor; against Estrogen receptor; in series [1]; against Nitric oxide synthase 1; in series [2]; in series [3]) was “Not Active” in each case. Moreover, the 50% inhibitory concentration (IC50) entry at Cytochrome P450 2C19 is “Not Active”. Further, the Ki entry (in series [2]; in series [3]; at Cytochrome P450 2C19) was “Not Active” each time.

Consider `NC(=O)N1c2ccccc2C=Cc2ccccc21` [CARBAMAZEPINE], for which the 50% inhibitory concentration (IC50) entry (against Substance-K receptor; at Estrogen receptor; in series [1]; at Nitric oxide synthase 1; in series [2]; in series [3]) was “Not Active” in each case. Also, the IC50 result against Cytochrome P450 2C19 is on record as “Not Active”. The Ki entry (in series [2]; in series [3]; on Cytochrome P450 2C19) was “Not Active” each time.

With `CCOC(=O)n1ccn(C)c1=S` [CARBIMAZOLE], the half-inhibitory concentration (IC50) entry (against Substance-K receptor; against Estrogen receptor; in series [1]; against Nitric oxide synthase 1; in series [2]; in series [3]) was “Not Active” each time. Besides, the IC50 entry on Cytochrome P450 2C19 is recorded as “Not Active”. The Ki result (in series [2]; in series [3]; on Cytochrome P450 2C19) was “Not Active” in each case.

For `CO[C@@]1(NC(=O)CSCC#N)C(=O)N2C(C(=O)O)=C(CSc3nnnn3C)CS[C@@H]21` [CEFMETAZOLE], the half-inhibitory concentration (IC50) entry (on Substance-K receptor; at Estrogen receptor; in series [1]; against Nitric oxide synthase 1; in series [2]; in series [3]) was “Not Active” in each case. The IC50 entry against Cytochrome P450 2C19 is “Not Active”. The Ki entry (in series [2]; in series [3]; at Cytochrome P450 2C19) was “Not Active” in each case.

In the case of `CC(C)(Oc1ccc(C2CC2(Cl)Cl)cc1)C(=O)O` (stereo not given) [CIPROFIBRATE], the 50% inhibitory concentration (IC50) entry (on Substance-K receptor; on Estrogen receptor; in series [1]; against Nitric oxide synthase 1; in series [2]; in series [3]) was “Not Active” in each case. Also, the IC50 result against Cytochrome P450 2C19 is “Not Active”. The Ki result (in series [2]; in series [3]; at Cytochrome P450 2C19) was “Not Active” each time.

In the case of `CC[C@H]1OC(=O)[C@H](C)[C@@H](O[C@H]2C[C@@](C)(OC)[C@@H](O)[C@H](C)O2)[C@H](C)[C@@H](O[C@@H]2O[C@H](C)C[C@H](N(C)C)[C@H]2O)[C@](C)(OC)C[C@@H](C)C(=O)[C@H](C)[C@@H](O)[C@]1(C)O` [CLARITHROMYCIN], the 50% inhibitory concentration (IC50) result (against Substance-K receptor; against Estrogen receptor; in series [1]; against Nitric oxide synthase 1; in series [2]; in series [3]) was “Not Active” throughout. At Cytochrome P450 2C19, the half-inhibitory concentration (IC50) entry is “Not Active”. Further, the Ki entry (in series [2]; in series [3]; on Cytochrome P450 2C19) was “Not Active” in each case.

For the compound `O=C(O)c1cc(=O)c2c(OCC(O)COc3cccc4oc(C(=O)O)cc(=O)c34)cccc2o1` [CROMOLYN], the IC50 result (at Substance-K receptor; against Estrogen receptor; in series [1]; at Nitric oxide synthase 1; in series [2]; in series [3]) was “Not Active” throughout. Further, the concentration for half-maximal inhibition (IC50) result on Cytochrome P450 2C19 was “Not Active”. For the same compound, the Ki result (in series [2]; in series [3]; at Cytochrome P450 2C19) was “Not Active” in each case.

On to `O=P1(N(CCCl)CCCl)NCCCO1` (stereo not given) [CYCLOPHOSPHAMIDE ANHYDROUS], for which the 50% inhibitory concentration (IC50) entry (against Substance-K receptor; against Estrogen receptor; in series [1]; against Nitric oxide synthase 1; in series [2]; in series [3]) was “Not Active” in each case. The IC50 result against Cytochrome P450 2C19 was “Not Active”. The Ki entry (in series [2]; in series [3]; on Cytochrome P450 2C19) was “Not Active” in each case.

In the case of `CCN[C@@H](C)Cc1cccc(C(F)(F)F)c1` [DEXFENFLURAMINE], the half-maximal inhibitory concentration (IC50) entry (against Substance-K receptor; against Estrogen receptor; in series [1]; against Nitric oxide synthase 1; in series [2]; in series [3]) was “Not Active” each time. In addition, the IC50 result against Cytochrome P450 2C19 was “Not Active”. Besides, the Ki entry (in series [2]; in series [3]; on Cytochrome P450 2C19) was “Not Active” in each case.

In the case of `C[C@H](C(=O)O)c1cccc(C(=O)c2ccccc2)c1` [DEXKETOPROFEN], the half-maximal inhibitory concentration (IC50) entry (against Substance-K receptor; against Estrogen receptor; in series [1]; at Nitric oxide synthase 1; in series [2]; in series [3]) was “Not Active” each time. For the same compound, the half-maximal inhibitory concentration (IC50) entry against Cytochrome P450 2C19 was “Not Active”. For the same compound, the Ki result (in series [2]; in series [3]; on Cytochrome P450 2C19) was “Not Active” throughout.

Take `CC(CCc1ccc(O)cc1)NCCc1ccc(O)c(O)c1` (stereo not given) [DOBUTAMINE]: the IC50 result (at Substance-K receptor; against Estrogen receptor; in series [1]; at Nitric oxide synthase 1; in series [2]; in series [3]) was “Not Active” each time. For the same compound, the IC50 result on Cytochrome P450 2C19 was “Not Active”. In addition, the Ki entry (in series [2]; in series [3]; on Cytochrome P450 2C19) was “Not Active” in each case.

For `CCn1cc(C(=O)O)c(=O)c2cc(F)c(N3CCNCC3)nc21` [ENOXACIN], the IC50 entry (against Substance-K receptor; against Estrogen receptor; in series [1]; on Nitric oxide synthase 1; in series [2]; in series [3]) was “Not Active” each time. For the same compound, the IC50 result on Cytochrome P450 2C19 is recorded as “Not Active”. Moreover, the Ki result (in series [2]; in series [3]; on Cytochrome P450 2C19) was “Not Active” in each case.

What is called IC50 is the concentration at which inhibition is half-maximal.

For the origin of these results see ChEMBL document CHEMBL1909046, “DrugMatrix in vitro pharmacology data”.
